Laboratory results reported in patent US5171746A, “Thiazole and imidazole derivatives and antiulcer composition containing same” (priority 1990, dated 1992).
In brackets after ≈: the same amount, converted by molar mass.

Assays:
[1] = test system: Helicobacter pylori HI-0015; assay: Antimicrobial activity, agar plate dilution method (strain HI-0015); format: cell-based; conditions: HI0015, 48 h, two days at 37° C., read-out: MINIMUM GROWTH INHIBITION CONCENTRATION
From the text: (§1) Helicobacter pylori is Gram negative microaerophile which has been recently isolated from human tunica mucosa ventriculi and seems to serve for pathopoiesis and recurrence of ulcer in alimentary canal. The compounds of formula (I) show an antimicrobial activity to inhibit the growth of Helicobacter pylori.
(§2) The media used were that of Muller-Hinton liquid medium (BBL) containing 7% horse serum, and of Heart-Infusin agar medium (Difco) containing 5% horse defibrinized blood. The culture was incubated for two days at 37° C. using Gaspack (BBL) without a catalyst.

[2] = test system: Helicobacter pylori HI-0001; assay: Antimicrobial activity, agar plate dilution method (strain HI-0001); format: cell-based; conditions: HI0001, 48 h, two days at 37° C., read-out: MINIMUM GROWTH INHIBITION CONCENTRATION
From the text: as §1, §2

[3] = test system: Water-immersion induced stress ulcer; assay: Water-immersion induced stress ulcer; format: in vivo, Wister male rats; conditions: rats, single dose 30 mg/kg in 0.5% CMC one hour prior to stressing (water immersion, 6 h); for inhibition in vivo at 30 mg/kg: Rattus norvegicus
Method: Wister male rats (11-week age) fasted for 18 hours were placed in a restraint cage, which was in turn immersed to a depth of the pectoral region in water at 20 to 22° C. to leave the rats under stress for six hours. Then, the rats were drawn up from the water and put down by vertebral dislocation. Afterwards, the stomach was removed, infused with 5 ml of a 5% aqueous solution of formalin and was wholly immersed in the same solution for 30 minutes for fixation. The fixed sample was dissected along the curvature ventriculi major, and the ulcer regions were measured along their major length (in mm) by means of slide calipers. The total sum of the measurements per rat is a value of ulcer index.
The compounds under test shown in TABLE 3, suspended in 0.5% carboxymethylcellulose (CMC), were administered to the rats at a single dose of 30 mg/kg body weight of the compound one hour prior to the stressing. To a control group, only 0.5% CMC was administered. The antiulcer activity was calculated according to the following equation: [formula]

Acute toxicity = format: in vivo; conditions: mice, three per group
Ethanol-induced ulcer = assay: Ethanol-induced ulcer; format: in vivo, Donryu masculine rats; conditions: rats; 100% ethanol 5 ml/kg orally; compound in 0.5% CMC orally at 5 ml/kg; one hour
Method: Five (5) ml/kg of 100% ethanol was orally administered to Donryu masculine rats fasted for 48 hours and dehydrated for 24 hours. Then, the compounds under test, suspended in 0.5% CMC, were orally administered to the rats at a dose of 5 ml/kg body weight. One hour later, the rats were put down in a similar manner as mentioned above to remove and treat the stomach.

Compound | MIC [1] [µg/mL] | MIC [2] [µg/mL] | inhibition in vivo at 30 mg/kg [3] [%] | further results
CC1(C)S[C@@H]2[C@H](NC(=O)[C@H](N)c3ccccc3)C(=O)N2[C@H]1C(=O)O [Aminobenzylpenicillin, reference compound] | 0.2 (≈ 0.572 µM) | 0.025 (≈ 0.0715 µM) | – | –
CCOCC[S+]([O-])c1nc(-c2cccnc2)cs1 (stereo not shown) [Example 2, 2-[(2-ethoxyethyl)sulfinyl]-4-(3-pyridyl)thiazole] | – | – | 72.5 | –
CC(C)N(CC[S+]([O-])c1nc(-c2cccnc2)cs1)C(C)C (stereo not shown) [Example 8] | – | – | 70.5 | –
CCOCC[S+]([O-])c1ncc(-c2ccccc2)s1 (stereo not shown) [Example 12, 2-[(2-ethoxyethyl)sulfinyl]-5-phenylthiazole] | – | – | 52.5 | –
CCOCC[S+]([O-])c1nc(-c2ccsc2)cs1 (stereo not shown) [Example 14, 2-[(2-ethoxyethyl)sulfinyl]-4-(3-thienyl)thiazole] | 100 (≈ 348 µM) | 50 (≈ 174 µM) | 62.7 | –
CCNC(=O)NCC[S+]([O-])c1nc2cc(Cl)ccc2s1 (stereo not shown) [Example 22, N-(5-chlorobenzothiazol-2-yl)sulfinylethyl--N'-ethylurea] | – | – | 63.1 | –
O=C(NCCCl)NCCSc1nc2cc(Cl)ccc2s1 [Example 23, N-(5-chlorobenzothiazol-2-yl)thioethyl--N'-(2-chloroethyl)urea] | 12.5 (≈ 35.7 µM) | 12.5 (≈ 35.7 µM) | – | –
O=C(NCCCl)NCC[S+]([O-])c1nc2cc(Cl)ccc2s1 (stereo not shown) [Example 24, N-(5-chlorobenzothiazol-2-y1)sulfinylethyl--N'-(2-chloroethyl)urea] | – | – | 70.1 | –
CCNC(=S)NCCSc1nc2cc(Cl)ccc2s1 [Example 25, N-(5-chlorobenzothiazol-2-yl)thioethyl--N'-ethylthiourea] | 0.025 (≈ 0.0753 µM) | 0.025 (≈ 0.0753 µM) | 64.2 | –
CCN=C(NC#N)NCCSc1nc2cc(Cl)ccc2s1 [Example 27, N-(5-chlorobenzothiazol-2-yl)thioethyl--N'-cyano--N"-ethylguanidine] | 12.5 (≈ 36.8 µM) | 12.5 (≈ 36.8 µM) | – | –
CCN=C(NC#N)NCC[S+]([O-])c1nc2cc(Cl)ccc2s1 (stereo not shown) [Example 28, N-(5-chlorobenzothiazol-2-yl)sulfinylethyl--N'-cyano--N"-ethylguanidine] | – | – | 57 | –
Clc1ccc2sc(SCCN3CCOCC3)nc2c1 [Example 31, 5-chloro-2-[(2-morpholinoethyl)thio]benzothiazole] | – | – | – | Acute toxicity (deaths) (Acute toxicity; intraperitoneal dose of 100 mgkg): none of the animals were sacrificed; Acute toxicity (deaths) (Acute toxicity; peroral dose of 300 mgkg): none of the animals were sacrificed
[O-][S+](CCN1CCOCC1)c1nc2cc(Cl)ccc2s1 (stereo not shown) [Example 32, 5-chloro-2-[(2-morpholinoethyl)sulfinyl]benzothiazole] | 3.13 (≈ 9.46 µM) | 1.56 (≈ 4.71 µM) | 83.1 | depression of erosion (Ethanol-induced ulcer): 93.0%
[O-][S+](CCN1CCOCC1)c1nc2cccc(Cl)c2s1 (stereo not shown) [Example 35, 7-chloro-2-[(2-morpholinoethyl)sulfinyl]benzothiazole] | 6.25 (≈ 18.9 µM) | 3.13 (≈ 9.46 µM) | 72.1 | –
[O-][S+](CCN1CCOCC1)c1nc2ccc(Cl)cc2s1 (stereo not shown) [Example 37, 6-chloro-2-[(2-morpholinoethyl)sulfinyl]benzothiazole] | 6.25 (≈ 18.9 µM) | 3.13 (≈ 9.46 µM) | 78 | –
CN1CCCC1CC[S+]([O-])c1nc2cc(Cl)ccc2s1 (stereo not shown) [Example 47, 5-chloro-2-{[2-(N-methylpyrrolidin-2-Y1)ethyl]sulfinyl}benzothiazole] | 3.13 (≈ 9.52 µM) | 0.39 (≈ 1.19 µM) | – | –
[O-][S+](CCN1CCOCC1)c1nc2ccc(Cl)cc2[nH]1 (stereo not shown) [Example 49, 5-chloro-2-[(2-morpholinoethyl)sulfinyl]benzimidazole] | – | – | 63.6 | –
CCOCC[S+]([O-])c1nc2cccc(Cl)c2s1 (stereo not shown) [Example 61, 7-chloro-2-[(2-ethoxyethyl)sulfinyl]benzothiazole] | – | – | 61.8 | –
CCOCC[S+]([O-])c1nc2ccc(Cl)cc2s1 (stereo not shown) [Example 63, 6-chloro-2-[(2-ethoxyethyl)sulfinyl]benzothiazole] | 6.25 (≈ 21.6 µM) | 3.13 (≈ 10.8 µM) | 76.5 | –
[O-][S+](CCOCCCl)c1nc2cc(Cl)ccc2s1 (stereo not shown) [Example 67, 5-chloro-2-{[2-(2-chloroethoxy)ethyl]sulfinyl}benzothiazole] | – | – | – | Inhibition (%) [3]: 53.3%
CCOCC[S+]([O-])c1nc2ccc(OC)cc2[nH]1 (stereo not shown) [Example 72, 5-methoxy-2-[(2-ethoxyethyl)sulfinyl]benzimidazole] | – | – | 65.6 | –
CCOCC[S+]([O-])c1nc2cc(C(F)(F)F)ccc2s1 (stereo not shown) [Example 76, 5-trifluoromethyl-2-[(2-ethoxyethyl)sulfinyl]benzothiazole] | – | – | 61.3 | –
CCOCC[S+]([O-])c1nc2cc([N+](=O)[O-])ccc2s1 (stereo not shown) [Example 78, 5-nitro-2-[(2-ethoxyethyl)sulfinyl]benzothiazole] | 6.25 (≈ 20.8 µM) | 6.25 (≈ 20.8 µM) | 60.7 | –
CC1COc2c(N3CCN(C)CC3)c(F)cc3c(=O)c(C(=O)O)cn1c23 (stereo not shown) [Ofloxacin, reference compound] | 0.78 (≈ 2.16 µM) | 0.78 (≈ 2.16 µM) | – | –
COc1ccc2[nH]c([S+]([O-])Cc3ncc(C)c(OC)c3C)nc2c1 (stereo not shown) [Omeprazole, reference compound] | – | – | 90 | –
